Experimental data as given in patent publication US6017958A, “Method of treating malignant tumors with thyroxine analogues having no significant hormonal activity” (Octamer, Inc., priority 1997, dated 2000).
“Also recorded” adds a separate entry of the source.

Experiments:
In vivo toxicity = assay: In vivo toxicity; parameters: species or system mouse
Experimental: Ten nude mice were administered a daily oral dose of ^14 C-labeled DIME (Compound 1) (1.0 g/kg, 0.1 mL in corn oil) for a period of 12-15 days.

[1] = test system: protein phosphatase 2A (DU-145); assay: Phosphatase activity, DU-145; type: cell-based, human
Experimental: Compounds 1-13 were tested for protein phosphatase 2A activation in malignant tumor cell cultures in vitro according to the protocol described in Bauer et al., 1996, "Modification of Growth Related Enzymatic Pathways and Apparent Loss of Tumorigenicity of a Ras-Transformed Bovine Endothelial Cell Line by Treatment with 5-Iodo-6-Amino-1,2-Benzopyrone (INH2 BP)," International J. of Oncology 8:239-252. All other compounds were ineffective.

[2] = test system: A-549 (lung cancer) cell extracts, esterase; assay: Esterase cleavage of DIME by A-549 cell extracts (TLC); type: in vitro ADME, human
Experimental: In the experiment shown in lines 1 and 2 the esterase activity of the extract occurs during 4 hours incubation with 1 μM DIME. […] Lines 3 and 4 depict the same experiments as in lines 1 and 2, except the cell extracts were prepared from intact cells preincubated for 24 hours with 1 μM DIME, then washed and extracted.
(a) mouse tissue homogenate (brain, kidney, liver lung) consisting of 0.2 g of tissue in 1.0 ml. of homogenization buffer (50 mM Tris (pH 7.4), 400 mM NaCl, 10 mM MgCl2, 1 mM EDTA, 0.5% NP-40, 0.5 mM PMSF) each were combined with 1.0 ml of MES buffer (100 mM ph 6.5) containing 20 μM [^14 C]-DIME (10.55 mCi/mmol), and the mixtures were incubated at 37° C. for 4 hours. Then to each tube was added sequentially ethyl acetate (1.5 ml), ammonium sulfate (900 mg) and 60% perchloric acid (160 μl), with vortexing after each addition. After standing for 10 minutes, phase separation was enhanced by benchtop centrifugation. The upper (ethyl acetate) layer was drawn off, and the lower aqueous and interphase material was extracted with a second portion of ethyl acetate (1.5 ml). The ethyl acetate extracts (combined) contained more than 90% of the total cpm present in the original incubate (ca. 4×10^5 cpm). […]

MDA-MB-231 cells = assay: Chromosome analysis by in situ hybridization; type: cell-based, human; settings: 1 μM
Experimental: The MDA-MB-231 cell line was obtained from ATCC (Rockville, Md., USA) and cells were cultured in T-75 flasks at 37° C. in Minimum Essential Medium-alpha, supplemented with 10% FCS. In controls, not receiving DIME, 0.1 μg/ml colcemid was added to cultures for 4 hrs prior to the collection of metaphase-blocked cells and preparation of cell spreads. […] Cells (10^7) were isolated from T-75 trypsinization for 5 min with 0.025% trypsin, and sedimented by centrifugation, resuspended and kept in 10 ml of 75 mM KC1 at 37° C. for 10 min, resedimented, and fixed in 10 ml methanol-acetic acid, with four successive changes of methanol-acetic acid. An aliquot of the final cell suspension (100 μl) was dropped on ethanol-cleaned slides and air-dried.
Human chromosome-specific probes were produced by ONCOR (Gaithersburg, Md., USA). Hybridization was accomplished by a modification of the procedure described by Pinkel et al., 1986, "Cytogentic Analysis Using Quantitative High-Sensitivity Fluorescence Hybridization," Proc. Natl. Acad. Sci. U.S.A. 83:2934-2938. The slide-mounted cells were treated with pepsin (20 μg/ml in 0.01 N HCl) at 37° C. for 10 min and then dehydrated in a 70%, 85% and 100% ethanol series, then DNA was denatured by immersion in 70% formamide, followed by 2X standard saline citrate (IX SSC is […], 0.015 M sodium citrate, pH 7.0) for 2 min. at 70° C., and dehydrated in ethanol as described above. The hybridization mixture in a 10 μl total volume consisted of 50% formamide, 2X SSC, 10% dextran sulfate, 0.5 μg herring sperm DNA, and 1-5 μg of proteinase K-treated human placental DNA. Both herring sperm DNA and human placental DNA were previously sonicated to 200-600 bp fragments, and -40 ng of digoxigeninylated probe DNA (denatured at 70° C. for 5 min) added, and incubated at 37° C. for 1 hr. This mixture was placed on slides containing the fixed cells, sealed under a coverslip, and incubated at 37° C. for 2 to 3 days. […] The slides were viewed in a Zeiss fluorescence microscope equipped with a multiple band pass filter (Chroma Technology, Brattleboro, Vt., USA) to determine the number of FISH signals in each nucleus.

[3] = test system: iodine uptake into the thyroid; settings: rats, as compared to thyroxine (Money et al., 1959); cited from earlier work
noncancer cells = assay: Replication of noncancer cells in culture; type: cell-based; settings: cells growing in cultures; not shown

For `COC(=O)c1cc(I)c(Oc2ccc(OC)cc2)c(I)c1` [Compound 1, Methyl 3,5-diiodo-4-(4'-methoxyphenoxy)benzoate], the ill effects (In vivo toxicity; 1.0 g/kg daily oral, 12-15 days, nude mice, listed as DIME) was “No ill effects were observed; also recorded: produced no ill effects”, the “macroscopically observed toxicity in vivo” value (In vivo toxicity; in vivo) was “no macroscopically observed toxicity in vivo” and the “Phosphatase Activity” value ([1]; 50 μM DIME, untreated 12.1 ± 3) was 19.1 ± 2.5 fmol Pi/mg protein × min. For the same compound, the “activation of protein phosphatase 2A, fold” value ([1]; 50 μM, DU-145 cells) was “at least two-fold”, the “ester bond cleavage by A-549 cells” value ([2]; A-549 cells) was “readily cleave the ester bond” and the esterase induction ([2]; intact cells preincubated 24 hours with 1 μM DIME) was “esterase is not induced by DIME”. The “effect on chromosomes (in situ hybridization)” value (MDA-MB-231 cells; 18 hrs) was “no detectable effect”, the chromosome breakage (MDA-MB-231 cells; 5 days) was “No evidence for chromosome breakage” and the chromosome-19 signals (MDA-MB-231 cells; 5 days, some cells) was “about 40 chromosome-19 signals”. For the same compound, the chromosomes per cell (MDA-MB-231 cells; 5 days, some cells) was “over 100 chromosomes”, the “inhibition of uptake of iodine into the thyroid” value [3] was 15% and the “inhibition of replication of noncancer cells” value (noncancer cells) was “inhibited to varying degrees”.
